Experimental data reported in article PMC5869712 (Scientific Reports, 2018).
pIC50: −log10 of the molar value.

Key:
IKKε = biological target: T1, IKKε (Homo sapiens, UniProt Q14164); assay: Eurofins Kinase Profiler panel; format: biochemical; details: read-out: % inhibition (1μM), DMSO control=100%, lower=stronger
T1 construct: purchased Eurofins KinaseProfiler (Eurofins Pharma Discovery Services UK, Dundee); JAK3 also ChemPartner

TYK2 = TYK2 (Homo sapiens, UniProt P29597); assay: Enzymatic Caliper Mobility Shift Assay, ATP at Km; format: biochemical
Chain of TYK2 (P29597 whole entry): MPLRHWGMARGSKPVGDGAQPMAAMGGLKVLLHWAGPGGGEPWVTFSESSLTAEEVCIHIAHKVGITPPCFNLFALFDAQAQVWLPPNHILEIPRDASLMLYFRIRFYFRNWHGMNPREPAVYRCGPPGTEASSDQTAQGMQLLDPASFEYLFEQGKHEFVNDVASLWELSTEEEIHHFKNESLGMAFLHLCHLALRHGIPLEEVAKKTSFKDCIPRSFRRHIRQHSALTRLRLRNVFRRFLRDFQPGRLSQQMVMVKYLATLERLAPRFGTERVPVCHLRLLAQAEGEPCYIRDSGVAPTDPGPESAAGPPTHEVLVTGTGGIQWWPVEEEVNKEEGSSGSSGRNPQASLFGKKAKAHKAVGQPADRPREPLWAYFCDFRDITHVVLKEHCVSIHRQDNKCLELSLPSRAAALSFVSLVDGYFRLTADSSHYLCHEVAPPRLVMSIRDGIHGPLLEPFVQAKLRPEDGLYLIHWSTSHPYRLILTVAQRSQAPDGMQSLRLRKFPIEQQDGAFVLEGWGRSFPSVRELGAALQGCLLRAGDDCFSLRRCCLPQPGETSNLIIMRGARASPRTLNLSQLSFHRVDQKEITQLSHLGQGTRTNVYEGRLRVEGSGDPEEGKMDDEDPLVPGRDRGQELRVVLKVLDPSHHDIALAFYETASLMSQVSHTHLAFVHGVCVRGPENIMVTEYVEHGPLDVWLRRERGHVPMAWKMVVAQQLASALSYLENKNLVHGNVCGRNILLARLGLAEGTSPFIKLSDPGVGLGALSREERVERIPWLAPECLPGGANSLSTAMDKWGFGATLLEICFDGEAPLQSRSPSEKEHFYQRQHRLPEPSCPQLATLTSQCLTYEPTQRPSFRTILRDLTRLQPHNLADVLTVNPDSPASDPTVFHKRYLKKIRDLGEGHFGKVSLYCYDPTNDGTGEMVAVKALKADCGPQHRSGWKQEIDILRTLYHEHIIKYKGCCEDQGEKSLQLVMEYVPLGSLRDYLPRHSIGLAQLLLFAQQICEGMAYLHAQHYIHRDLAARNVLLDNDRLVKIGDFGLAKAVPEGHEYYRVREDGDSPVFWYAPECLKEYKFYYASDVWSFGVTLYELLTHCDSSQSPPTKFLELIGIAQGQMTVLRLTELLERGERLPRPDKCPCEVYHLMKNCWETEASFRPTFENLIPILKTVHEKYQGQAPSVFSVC
From the text: (§1) The assay protocol guides are commercially available from ChemPartner.

JAK1 = biological target: T2, JAK1 (Homo sapiens, UniProt P23458); assay: Enzymatic Caliper Mobility Shift Assay, ATP at Km; format: biochemical
T2 construct: ChemPartner (contract assay service)
T2 sequence (P23458 whole entry): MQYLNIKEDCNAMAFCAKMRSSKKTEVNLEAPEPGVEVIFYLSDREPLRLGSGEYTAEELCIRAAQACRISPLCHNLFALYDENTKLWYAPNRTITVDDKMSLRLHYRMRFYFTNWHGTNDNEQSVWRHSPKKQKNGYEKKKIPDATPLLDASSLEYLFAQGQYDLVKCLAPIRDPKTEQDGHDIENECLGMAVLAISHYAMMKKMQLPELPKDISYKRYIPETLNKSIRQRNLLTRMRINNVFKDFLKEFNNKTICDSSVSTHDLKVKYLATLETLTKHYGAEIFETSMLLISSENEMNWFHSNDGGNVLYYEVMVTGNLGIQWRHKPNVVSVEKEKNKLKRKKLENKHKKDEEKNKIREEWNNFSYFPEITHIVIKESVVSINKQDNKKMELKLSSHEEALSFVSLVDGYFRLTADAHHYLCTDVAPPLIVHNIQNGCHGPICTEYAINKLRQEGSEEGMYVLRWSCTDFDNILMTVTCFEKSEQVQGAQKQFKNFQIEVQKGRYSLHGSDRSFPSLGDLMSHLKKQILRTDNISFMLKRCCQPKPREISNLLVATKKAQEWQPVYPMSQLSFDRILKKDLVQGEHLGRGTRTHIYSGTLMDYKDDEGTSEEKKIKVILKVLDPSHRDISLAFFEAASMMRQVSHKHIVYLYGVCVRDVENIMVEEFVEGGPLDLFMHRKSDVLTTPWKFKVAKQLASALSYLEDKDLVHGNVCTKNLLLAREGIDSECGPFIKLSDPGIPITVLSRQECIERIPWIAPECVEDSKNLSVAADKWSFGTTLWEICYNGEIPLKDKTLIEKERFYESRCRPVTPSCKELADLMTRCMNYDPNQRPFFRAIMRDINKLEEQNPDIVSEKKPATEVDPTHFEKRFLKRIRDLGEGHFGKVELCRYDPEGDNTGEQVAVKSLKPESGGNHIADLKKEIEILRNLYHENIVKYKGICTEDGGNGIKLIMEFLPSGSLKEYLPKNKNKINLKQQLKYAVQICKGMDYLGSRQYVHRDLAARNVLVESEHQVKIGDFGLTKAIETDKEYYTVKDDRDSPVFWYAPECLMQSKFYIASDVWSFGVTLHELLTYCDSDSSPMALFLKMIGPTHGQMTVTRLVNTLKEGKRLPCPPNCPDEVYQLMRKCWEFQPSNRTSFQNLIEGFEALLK
From the text: as §1

JAK3 = biological target: T3, JAK3 (Homo sapiens, UniProt P52333); assay: Enzymatic Caliper Mobility Shift Assay, ATP at Km; format: biochemical
T3 construct: ChemPartner (contract assay service)
T3 sequence (P52333 1-1124): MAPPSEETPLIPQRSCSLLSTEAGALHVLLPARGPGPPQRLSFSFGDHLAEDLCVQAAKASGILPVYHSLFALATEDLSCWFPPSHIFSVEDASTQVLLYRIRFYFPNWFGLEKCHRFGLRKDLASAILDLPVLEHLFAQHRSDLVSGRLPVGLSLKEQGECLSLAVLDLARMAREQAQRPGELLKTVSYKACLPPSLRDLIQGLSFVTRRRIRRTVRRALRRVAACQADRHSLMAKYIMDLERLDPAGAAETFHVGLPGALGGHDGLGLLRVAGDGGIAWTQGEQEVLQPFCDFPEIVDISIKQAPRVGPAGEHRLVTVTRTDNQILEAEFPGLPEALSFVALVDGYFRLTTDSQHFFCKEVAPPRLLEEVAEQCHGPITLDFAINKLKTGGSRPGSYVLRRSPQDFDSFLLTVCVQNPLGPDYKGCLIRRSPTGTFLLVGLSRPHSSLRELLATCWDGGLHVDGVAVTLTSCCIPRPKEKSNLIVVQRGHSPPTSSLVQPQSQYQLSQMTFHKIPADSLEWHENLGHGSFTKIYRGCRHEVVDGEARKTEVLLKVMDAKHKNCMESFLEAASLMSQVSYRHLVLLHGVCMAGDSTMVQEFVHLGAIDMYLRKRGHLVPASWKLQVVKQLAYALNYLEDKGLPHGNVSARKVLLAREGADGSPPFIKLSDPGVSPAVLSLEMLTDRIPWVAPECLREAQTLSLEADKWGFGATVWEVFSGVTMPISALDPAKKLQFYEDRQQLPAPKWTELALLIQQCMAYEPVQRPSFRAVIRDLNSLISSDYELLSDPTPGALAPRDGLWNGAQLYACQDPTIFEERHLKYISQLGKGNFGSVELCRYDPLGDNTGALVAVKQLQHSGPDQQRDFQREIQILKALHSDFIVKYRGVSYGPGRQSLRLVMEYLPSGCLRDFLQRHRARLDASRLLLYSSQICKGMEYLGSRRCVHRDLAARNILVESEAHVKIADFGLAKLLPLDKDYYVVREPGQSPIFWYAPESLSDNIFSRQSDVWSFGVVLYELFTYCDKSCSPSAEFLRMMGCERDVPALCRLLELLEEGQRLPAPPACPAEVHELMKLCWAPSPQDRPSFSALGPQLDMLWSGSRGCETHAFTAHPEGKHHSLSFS
From the text: as §1

JAK2 = biological target: T4, JAK2 (Homo sapiens, UniProt O60674); assay: Enzymatic Caliper Mobility Shift Assay, ATP at Km; format: biochemical
T4 construct: ChemPartner (contract assay service)
T4 sequence (O60674 whole entry): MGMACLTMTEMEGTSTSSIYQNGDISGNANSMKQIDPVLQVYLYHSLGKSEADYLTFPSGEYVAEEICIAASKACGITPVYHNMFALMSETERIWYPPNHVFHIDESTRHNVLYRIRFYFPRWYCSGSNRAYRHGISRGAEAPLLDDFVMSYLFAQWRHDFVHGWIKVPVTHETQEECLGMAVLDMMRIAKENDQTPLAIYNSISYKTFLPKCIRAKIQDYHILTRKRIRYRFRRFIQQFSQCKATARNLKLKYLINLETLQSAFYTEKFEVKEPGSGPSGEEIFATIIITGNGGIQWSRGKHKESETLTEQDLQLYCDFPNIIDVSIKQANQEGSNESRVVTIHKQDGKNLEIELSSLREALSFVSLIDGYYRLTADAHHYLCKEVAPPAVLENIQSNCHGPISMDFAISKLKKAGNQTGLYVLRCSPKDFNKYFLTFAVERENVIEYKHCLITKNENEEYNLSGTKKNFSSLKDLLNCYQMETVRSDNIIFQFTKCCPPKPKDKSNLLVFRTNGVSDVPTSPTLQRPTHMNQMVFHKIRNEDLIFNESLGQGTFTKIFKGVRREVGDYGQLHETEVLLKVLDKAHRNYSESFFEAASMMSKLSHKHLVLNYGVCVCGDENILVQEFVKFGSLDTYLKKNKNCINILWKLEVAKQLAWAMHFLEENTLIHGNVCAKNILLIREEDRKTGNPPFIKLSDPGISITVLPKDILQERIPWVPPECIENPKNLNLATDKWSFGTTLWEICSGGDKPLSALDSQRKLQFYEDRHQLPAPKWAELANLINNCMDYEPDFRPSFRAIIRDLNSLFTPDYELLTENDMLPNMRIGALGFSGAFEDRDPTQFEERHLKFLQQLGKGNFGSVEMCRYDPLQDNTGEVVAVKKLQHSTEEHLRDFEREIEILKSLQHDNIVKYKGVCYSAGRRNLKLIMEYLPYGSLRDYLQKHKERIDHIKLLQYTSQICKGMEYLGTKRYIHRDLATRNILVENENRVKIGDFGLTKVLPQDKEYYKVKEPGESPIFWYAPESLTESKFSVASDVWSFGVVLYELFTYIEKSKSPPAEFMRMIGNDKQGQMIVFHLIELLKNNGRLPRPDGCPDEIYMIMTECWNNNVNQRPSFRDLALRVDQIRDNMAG
From the text: as §1

Fyn = biological target: T5, Fyn (Homo sapiens, UniProt P06241); assay: Eurofins Kinase Profiler panel; format: biochemical; details: read-out: % inhibition (1μM), DMSO control=100%, lower=stronger
T5 construct: purchased Eurofins Pharma Discovery Services UK Limited (Kinase Profiler screening platform)

[1] = system: Th1, Th17 and Treg cells of CIA mice; assay: Flow cytometry analysis of Th1, Th17 and Treg in CIA mice; format: in vivo, mouse; details: 100 mg/kg
Procedure: On day 32 after the indicated treatments, mice were sacrificed to obtain cells from the spleen. Then, the cells were incubated with the corresponding antibodies to detect Th1, Th17 cells and Treg cells. CD4^+ IFN-γ^+ represents Th1 cells, CD4^+ IL-17^+ represents Th17 cells in […]. CD4^+ Foxp3^+ represents Treg cells. The analyses of cells were performed as described above.

JAK3 (Cys909) = JAK3 (Cys909) (Homo sapiens, UniProt P52333); assay: LC-MS/MS mapping of covalent modification; format: binding; details: LC-MS/MS after incubation of JAK3 with compound
Procedure: […]. Then, trypsin was added at a 1:50 trypsin-to-protein mass ratio for the first digestion overnight and a 1:100 trypsin-to-protein mass ratio for a second 4-h digestion. The digested peptides were dried with a SpeedVac (Thermo) for LC-MS/MS analysis.
Peptides were dissolved in solvent A (0.1% FA in 2% ACN) and directly loaded onto a reversed-phase pre-column (Acclaim PepMap 100, Thermo Scientific). […] The resulting peptides were analysed by Q Exactive^TM Plus hybrid Quadrupole-Orbitrap Mass Spectrometer (ThermoFisher Scientific).
The peptides were subjected to NSI source followed by tandem mass spectrometry (MS/MS) in Q Exactive^TM Plus (Thermo) coupled online to the UPLC. Intact peptides were detected in the Orbitrap at a resolution of 70,000. Peptides were selected for MS/MS using 30% NCE; ion fragments were detected in the Orbitrap at a resolution of 17,500. A data-dependent procedure that alternated between one MS scan followed by […] was applied for the top 20 precursor ions above a threshold ion count of 5000 in the MS survey scan with 5.0 s dynamic exclusion. The electrospray voltage applied was 2.0 kV. Automatic gain control (AGC) was used to prevent overfilling of the ion trap; 5 E4 ions were accumulated for generation of MS/MS spectra. For MS scans, the m/z scan range was 350 to 1800.

[2] = Pharmacokinetics in Sprague Dawley rats; format: in vivo
Lyn = biological target: T6, Lyn (Homo sapiens, UniProt P07948); assay: Eurofins Kinase Profiler panel; format: biochemical; details: read-out: % inhibition (1μM), DMSO control=100%, lower=stronger
T6 construct: purchased Eurofins KinaseProfiler (Eurofins Pharma Discovery Services UK, Dundee); JAK3 also ChemPartner
T6 sequence (P07948 whole entry): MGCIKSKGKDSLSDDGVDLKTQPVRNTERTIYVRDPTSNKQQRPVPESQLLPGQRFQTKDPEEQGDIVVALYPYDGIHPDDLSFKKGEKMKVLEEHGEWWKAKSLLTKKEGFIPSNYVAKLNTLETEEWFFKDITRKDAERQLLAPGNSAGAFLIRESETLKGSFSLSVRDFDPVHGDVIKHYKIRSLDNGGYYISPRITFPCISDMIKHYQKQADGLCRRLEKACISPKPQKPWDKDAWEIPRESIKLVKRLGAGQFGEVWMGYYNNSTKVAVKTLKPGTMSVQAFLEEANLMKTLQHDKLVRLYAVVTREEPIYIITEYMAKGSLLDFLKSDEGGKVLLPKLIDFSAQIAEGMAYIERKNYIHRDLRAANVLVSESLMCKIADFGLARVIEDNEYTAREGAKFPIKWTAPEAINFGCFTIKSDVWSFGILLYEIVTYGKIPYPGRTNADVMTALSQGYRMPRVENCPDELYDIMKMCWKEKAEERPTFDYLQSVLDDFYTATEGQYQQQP

MKK4 = biological target: T7, MKK4 (Mus musculus, UniProt P47809); assay: Eurofins Kinase Profiler panel; format: biochemical; details: read-out: % inhibition (1μM), DMSO control=100%, lower=stronger
T7 construct: purchased Eurofins KinaseProfiler (Eurofins Pharma Discovery Services UK, Dundee); JAK3 also ChemPartner
T7 sequence (P47809 2-397 limits assumed): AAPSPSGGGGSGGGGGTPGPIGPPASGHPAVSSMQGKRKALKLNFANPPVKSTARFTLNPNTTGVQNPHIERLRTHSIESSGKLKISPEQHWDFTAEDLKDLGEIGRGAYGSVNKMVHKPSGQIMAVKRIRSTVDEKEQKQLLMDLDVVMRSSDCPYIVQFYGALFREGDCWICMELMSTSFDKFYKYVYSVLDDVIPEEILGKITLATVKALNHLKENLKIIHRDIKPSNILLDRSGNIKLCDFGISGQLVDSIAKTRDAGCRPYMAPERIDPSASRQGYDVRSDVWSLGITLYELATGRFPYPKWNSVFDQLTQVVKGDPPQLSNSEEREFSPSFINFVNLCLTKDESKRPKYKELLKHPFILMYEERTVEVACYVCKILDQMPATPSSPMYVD

MKK6 = biological target: T8, MKK6 (Homo sapiens, UniProt P52564); assay: Eurofins Kinase Profiler panel; format: biochemical; details: read-out: % inhibition (1μM), DMSO control=100%, lower=stronger
T8 construct: Eurofins Pharma Discovery Services UK Limited (Kinase Profiler service)

[3] = both sexes, Sprague Dawley, rat, iv 5.0 mg/kg, plasma
[4] = both sexes, Sprague Dawley, rat, plasma, iv 5.0 mg/kg
[5] = both sexes, Sprague Dawley, rat, plasma, po 10 mg/kg
[6] = both sexes, Sprague Dawley, rat, po 10 mg/kg, plasma

T1 sequence (Q14164 whole entry): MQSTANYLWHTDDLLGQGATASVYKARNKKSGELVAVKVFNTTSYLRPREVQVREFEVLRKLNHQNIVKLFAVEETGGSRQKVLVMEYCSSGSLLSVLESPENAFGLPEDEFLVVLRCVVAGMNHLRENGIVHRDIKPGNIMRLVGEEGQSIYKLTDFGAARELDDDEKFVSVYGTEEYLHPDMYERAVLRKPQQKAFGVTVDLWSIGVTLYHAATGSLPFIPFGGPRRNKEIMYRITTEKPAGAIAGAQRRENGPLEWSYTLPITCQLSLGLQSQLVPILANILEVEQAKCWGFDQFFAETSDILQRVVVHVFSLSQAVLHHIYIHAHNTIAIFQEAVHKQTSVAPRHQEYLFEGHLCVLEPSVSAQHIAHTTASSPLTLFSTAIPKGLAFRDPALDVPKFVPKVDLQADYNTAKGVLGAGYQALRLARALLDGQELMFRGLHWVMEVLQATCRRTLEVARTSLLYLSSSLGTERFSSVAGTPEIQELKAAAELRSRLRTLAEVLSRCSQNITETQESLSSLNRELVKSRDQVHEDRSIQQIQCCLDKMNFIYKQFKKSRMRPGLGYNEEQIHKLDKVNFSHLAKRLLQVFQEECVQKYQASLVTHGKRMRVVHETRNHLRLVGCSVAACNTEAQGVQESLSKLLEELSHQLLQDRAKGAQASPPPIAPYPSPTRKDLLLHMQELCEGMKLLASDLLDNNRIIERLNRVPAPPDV

C=CC(=O)N[C@@H]1CCCN(c2ncnc3[nH]ccc23)C1 [RB1]
activity at 1 µM (IKKε): 97% | pIC50 (TYK2; TYK2, ATP 16.0 μM (Km)): < 5.30 | inhibition of TYK2 (TYK2; at concentrations up to 5 µM): did not inhibit | pIC50 (JAK1): < 5.30 | inhibition of JAK1 (JAK1; at concentrations up to 5 µM): did not inhibit | pIC50 (JAK3): 7.40 | preference for JAK3 above JAK2, JAK1 and TYK2 (JAK3; kinase assay): over 100 fold | pIC50 (JAK2): < 5.30 | inhibition of JAK2 (JAK2; at concentrations up to 5 µM): did not inhibit | activity at 1 µM (Fyn): 97% | percentage of Treg cells ([1]; model 0.55%): 1.13% | Th1 cells ([1]; model 1.12%, normal […]): 0.49% | percentage of Th17 cells ([1]; model 2.13%): 0.80% | covalent modification of JAK3 (Cys909-containing peptide) (JAK3 (Cys909)): covalently modify JAK3 in an apparently irreversible manner | AUC(0-inf) [2, 3]: 933 ng·h/mL | AUC(0-t) [2, 3]: 802 ng·h/mL | Cmax [2, 3]: 1090 ng/mL | Tmax [2, 4]: 0.08 h | clearance [2, 4]: 97.7 mL/min/kg | half-life [2, 4]: 14.6 h | bioavailability ([2]; both sexes, Sprague Dawley, rat, plasma, oral, 10 mg/kg, po 10 mg/kg vs iv 5.0 mg/kg, read-out: F (oral bioavailability)): 72.5% | Tmax [2, 5]: 0.25 h | half-life [2, 5]: 6.9 h | AUC(0-inf) [2, 6]: 1310 ng·h/mL | AUC(0-t) [2, 6]: 1160 ng·h/mL | Cmax [2, 6]: 309 ng/mL | V ([2]; iv 5.0 mg/kg): 98.04 L/kg | CL ([2]; po 10 mg/kg): 144 mL/min/kg | V ([2]; po 10 mg/kg): 77.33 L/kg | F (oral bioavailability) ([2]; po 10 mg/kg vs iv 5.0 mg/kg): 72.5% | activity at 1 µM (Lyn): 118% | activity at 1 µM (MKK4): 114% | activity at 1 µM (MKK6): 69%
